From article PMC8151276, “An Integrated Approach toward NanoBRET Tracers for Analysis of GPCR Ligand Engagement” (Molecules, 2021) come the findings set out here.

What all share (format): binding
One assay deals with T1, NPY1R (Homo sapiens, UniProt P25929).
T1 construct: purchased Promega (in-house HiBiT-GPCR construct library, NanoBRET)
T1 sequence (P25929 1-384): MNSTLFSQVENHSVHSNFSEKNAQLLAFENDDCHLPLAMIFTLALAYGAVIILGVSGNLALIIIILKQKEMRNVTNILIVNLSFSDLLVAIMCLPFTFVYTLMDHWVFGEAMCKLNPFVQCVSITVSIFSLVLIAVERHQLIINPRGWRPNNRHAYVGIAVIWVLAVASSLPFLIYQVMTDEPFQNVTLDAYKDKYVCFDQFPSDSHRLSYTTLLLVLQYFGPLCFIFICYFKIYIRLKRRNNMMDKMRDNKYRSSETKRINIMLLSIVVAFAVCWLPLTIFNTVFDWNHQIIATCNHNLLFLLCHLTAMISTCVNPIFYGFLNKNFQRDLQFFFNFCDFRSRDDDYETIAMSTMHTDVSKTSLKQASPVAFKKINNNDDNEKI
Description: NanoBRET screen HiBiT-NPY1R in HEK293. As to the method: (§1) Each tracer candidate was screened across the entire library of HiBiT-GPCR constructs using NanoBRET as the detection modality. As depicted in Figure 4A, the specificity of interactions was evaluated through decrease in BRET due to competitive displacement of a bound tracer by excess parental compound. Each tracer was analyzed for binding to each HiBiT-GPCR fusion in the absence and in the presence of competing parental compound. Briefly, HEK293 cells were transfected with HiBiT-GPCR constructs diluted into promoterless DNA to reduce expression and maximize translocation to the cell surface. Each tracer candidate was then screened at concentrations of 1 μM and 0.1 μM across cells expressing these fusions. Cells were treated for 1.5 h with tracer either alone or in the presence of 20 μM competing parental compound (i.e., control). BRET was measured upon addition of purified LgBiT and subsequent complementation with HiBiT genetically fused to a GPCR. The specificity of interactions was assessed through a decrease in BRET signal due to competitive displacement of the bound tracer. To further gauge the robustness of these interactions, the fold response over the control (i.e., BRETtracer/BRETcontrol) was calculated. We chose a 1.5-fold response, which translates to ≥7-fold signal over noise as the minimal threshold required to score an interaction as positive. […]. Below we highlight the screening results obtained for our exemplary fluorescent tracers based on Clozapine, Amitriptyline and AZD1283.
(§2) HiBiT-GPCR DNA constructs were diluted in 10 mM Tris pH 8 to a final concentration of 0.01 μg/μL, arrayed in 96-well plates and stored at −20 °C. For transfection, HEK293 cells were suspended in Opti-MEM (without phenol red) supplemented with 2% fetal bovine serum (Seradigm) and 100 units/mL penicillin–streptomycin (Gibco) at a final concentration of 220,000 cells/mL and dispensed into white 96-well plates at 90 μL/well. Subsequent transfections and screens were carried using an Agilent Bravo Automated Liquid Handling Platform. First, the 96-well HiBiT DNA arrays were diluted 25-fold in Opti-MEM (without serum or phenol red) to a final concentration of 0.0004 μg/μL and 20 μL of the diluted DNAs were transferred into new 96-well plates. Next, promoterless carrier DNA (1 μg/μL) was diluted 25-fold (0.04 μg/μL) and then dispensed into the diluted arrays at 20 μL/well. Following brief mixing, Viafect transfection reagent (Promega) diluted 16-fold into Opti-MEM was dispensed into the plates at 40 μL/well. After mixing by pipetting, plates were incubated for 10 min on the pipetting station deck. The DNA-transfection reagent complexes were then added to plates containing cells. To facilitate the screen, 10 μL of DNA-transfection reagent complexes were added in duplicates to the top 4 and bottom 4 rows, resulting in two identical 48-well arrays per plate. Plates with transfected cells were incubated for 18–20 h at 37 °C/5% CO2. A screen of each tracer across the entire library using two different concentrations requires duplicate plates of transfected cells. Depending on the number of tracers being screened, transfections can be scaled up using the same ratios. The next day, for each tracer, four 20× screening solutions in tracer dilution buffer (Promega) were prepared: two duplicates at final concentration of 20 μM and two duplicates at a final concentration of 2 μM. A competing unmodified compound was added to one of each duplicate at a final concentration of 400 μM. The four resulting solutions were diluted 4-fold in Opti-MEM without serum or phenol red to generate 5× solutions (5 µM and 0.5 µM tracer +/− 100 μM competing compound). To screen the library, a BioTek MultiFlo FX liquid dispenser was used to dispense 22.5 µL of tracer solution to the top 4 rows and 22.5 µL tracer + competing compound solution to the 4 bottom rows. Plates were briefly mixed on an orbital shaker and incubated for 1.5 h at room temperature. […]
(In general: BRET reads energy transfer from a luciferase to a nearby fluorophore.)

A further assay concerns the target T2, CXCR1 (Homo sapiens, UniProt P25024).
T2 construct: purchased Promega (in-house HiBiT-GPCR construct library, NanoBRET)
T2 sequence (P25024 1-350): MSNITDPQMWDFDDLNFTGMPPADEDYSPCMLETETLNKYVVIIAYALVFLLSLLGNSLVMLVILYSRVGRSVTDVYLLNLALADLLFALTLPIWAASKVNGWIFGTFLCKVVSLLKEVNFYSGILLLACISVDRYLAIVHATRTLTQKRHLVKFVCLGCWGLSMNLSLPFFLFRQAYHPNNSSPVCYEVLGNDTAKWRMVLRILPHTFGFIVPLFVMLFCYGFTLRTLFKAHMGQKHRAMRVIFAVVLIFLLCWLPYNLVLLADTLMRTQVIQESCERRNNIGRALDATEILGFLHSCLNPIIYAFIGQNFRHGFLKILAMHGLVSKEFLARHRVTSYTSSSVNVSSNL
Description: NanoBRET screen HiBiT-CXCR1 in HEK293. As to the method:
as §1, §2

The target in another assay is T3, F2RL2 (Homo sapiens, UniProt O00254).
T3 construct: purchased Promega (in-house HiBiT-GPCR construct library, NanoBRET)
T3 sequence (O00254 22-374): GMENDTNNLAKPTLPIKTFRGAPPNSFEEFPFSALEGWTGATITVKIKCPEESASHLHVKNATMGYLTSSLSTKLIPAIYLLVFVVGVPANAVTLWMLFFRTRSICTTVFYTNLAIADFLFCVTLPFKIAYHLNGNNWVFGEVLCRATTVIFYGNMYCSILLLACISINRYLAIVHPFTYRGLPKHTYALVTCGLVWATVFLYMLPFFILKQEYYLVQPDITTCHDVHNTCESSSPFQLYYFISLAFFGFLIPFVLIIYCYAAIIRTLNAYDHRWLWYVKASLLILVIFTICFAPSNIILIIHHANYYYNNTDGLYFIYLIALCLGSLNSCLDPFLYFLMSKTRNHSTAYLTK
Kind of assay: NanoBRET screen HiBiT-F2RL2 in HEK293. As for the experimental part: as §1, §2

In a further assay the target is T4, P2RY6 (Homo sapiens, UniProt Q15077).
T4 construct: purchased Promega (in-house HiBiT-GPCR construct library, NanoBRET)
Description: NanoBRET screen HiBiT-P2RY6 in HEK293. As for the experimental part: as §1, §2

Another assay concerns the target T5, HRH2 (Homo sapiens, UniProt P25021).
T5 construct: purchased Promega (in-house HiBiT-GPCR construct library, NanoBRET)
Kind of assay: NanoBRET screen HiBiT-HRH2 in HEK293. As for the experimental part: as §1, §2

T5 sequence (P25021 whole entry): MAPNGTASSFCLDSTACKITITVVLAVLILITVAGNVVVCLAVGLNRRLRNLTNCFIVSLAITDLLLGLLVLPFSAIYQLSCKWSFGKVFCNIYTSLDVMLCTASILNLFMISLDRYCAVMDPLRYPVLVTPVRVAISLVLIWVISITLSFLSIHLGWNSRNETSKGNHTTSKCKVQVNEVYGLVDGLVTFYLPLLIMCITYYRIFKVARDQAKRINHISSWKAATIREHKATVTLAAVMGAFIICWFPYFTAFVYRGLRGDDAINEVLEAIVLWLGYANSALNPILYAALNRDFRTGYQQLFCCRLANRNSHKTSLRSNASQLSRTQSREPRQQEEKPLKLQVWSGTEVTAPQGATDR
T4 sequence (Q15077 whole entry): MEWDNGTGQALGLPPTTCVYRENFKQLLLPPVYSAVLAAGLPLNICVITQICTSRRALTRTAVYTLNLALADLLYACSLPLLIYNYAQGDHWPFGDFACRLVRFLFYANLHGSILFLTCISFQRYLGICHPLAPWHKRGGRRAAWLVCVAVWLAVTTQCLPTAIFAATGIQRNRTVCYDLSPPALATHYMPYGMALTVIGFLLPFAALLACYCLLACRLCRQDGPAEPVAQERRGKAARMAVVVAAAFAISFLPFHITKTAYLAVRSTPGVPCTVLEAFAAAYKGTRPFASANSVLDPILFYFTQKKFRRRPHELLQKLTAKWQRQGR

Take `COc1ccc2c(n1)c(CCNC(C)=O)cn2CCNC(=O)CCc1ccc2n1[B-](F)(F)[N+]1=C(c3ccc[nH]3)C=CC1=C2` [Azamelatonin-1-NB590]: the “NanoBRET Fold Response” value stood at 0.93 at NPY1R (0.1μM tracer); 0.68 at NPY1R (1μM tracer); 0.88 at CXCR1 (0.1μM tracer); 1.15 on CXCR1 (1μM tracer); 1.00 at F2RL2 (0.1μM tracer); 1.03 on F2RL2 (1μM tracer). Besides, the “NanoBRET Fold Response” value on P2RY6 (0.1μM tracer) is 1.01; at P2RY6 (1μM tracer) it was 1.01; on HRH2 (0.1μM tracer), 0.99; at HRH2 (1μM tracer), 0.99.

Turning to `CC(C)N(CC[C@H](c1ccccc1)c1cc(CCNC(=O)c2ccc(CNC(=O)CCc3ccc4n3[B-](F)(F)[N+]3=C(c5ccc[nH]5)C=CC3=C4)cc2)ccc1O)C(C)C` [Tolterodine-BZ-NB590], the “NanoBRET Fold Response” value on NPY1R (NPY1R, tracer 0.1μM) is recorded as 1.15; on NPY1R (NPY1R, tracer 1μM), 0.95; at CXCR1 (CXCR1, tracer 0.1μM) it was 0.98; at CXCR1 (CXCR1, tracer 1μM), 1.11; on F2RL2 (F2RL2, tracer 0.1μM), 1.01; at F2RL2 (F2RL2, tracer 1μM), 1.04. Besides, the “NanoBRET Fold Response” value on P2RY6 (P2RY6, tracer 0.1μM) is reported as 1.03; at P2RY6 (P2RY6, tracer 1μM), 1.08; at HRH2 (HRH2, tracer 0.1μM) it was 1.05; at HRH2 (HRH2, tracer 1μM), 0.87.

On to `O=C(CCc1ccc2n1[B-](F)(F)[N+]1=C(c3ccc[nH]3)C=CC1=C2)NCCOCCOCCNC(=O)OCCOCCN1CCN(C2=Nc3ccccc3Sc3ccccc32)CC1` [Quetiapine-a-2-NB590], for which the “NanoBRET Fold Response” value stood at 1.03 at NPY1R (NPY1R, tracer 0.1μM); 0.71 on NPY1R (NPY1R, tracer 1μM); 0.98 on CXCR1 (CXCR1, tracer 0.1μM); 0.95 at CXCR1 (CXCR1, tracer 1μM); 1.06 on F2RL2 (F2RL2, tracer 0.1μM); 0.89 on F2RL2 (F2RL2, tracer 1μM). The “NanoBRET Fold Response” value at P2RY6 (P2RY6, tracer 0.1μM) was 1.30; on P2RY6 (P2RY6, tracer 1μM), 0.96; on HRH2 (HRH2, tracer 0.1μM), 0.81; at HRH2 (HRH2, tracer 1μM), 1.05.

Turning to `Cc1cc2c(s1)Nc1ccccc1N=C2N1CCN(CCCNC(=O)CCOCCOCCOCCOCCNC(=O)CCc2ccc3n2[B-](F)(F)[N+]2=C(c4ccc[nH]4)C=CC2=C3)CC1` [Olanzapine-a-2-NB590], the “NanoBRET Fold Response” value was 1.02 on NPY1R (NPY1R, tracer 0.1μM); 1.02 at NPY1R (NPY1R, tracer 1μM); 1.00 at CXCR1 (CXCR1, tracer 0.1μM); 0.99 on CXCR1 (CXCR1, tracer 1μM); 0.97 at F2RL2 (F2RL2, tracer 0.1μM); 1.01 at F2RL2 (F2RL2, tracer 1μM). The “NanoBRET Fold Response” value on P2RY6 (P2RY6, tracer 0.1μM) came to 1.31; at P2RY6 (P2RY6, tracer 1μM), 0.95; at HRH2 (HRH2, tracer 0.1μM), 0.89; at HRH2 (HRH2, tracer 1μM), 0.85.

Turning to `O=C(CCc1ccc2n1[B-](F)(F)[N+]1=C(c3ccc[nH]3)C=CC1=C2)NCc1ccc(C(=O)NCCOCCOCCNCC(O)COc2cccc3ccccc23)cc1` (stereo not drawn) [Propranolol-3-NB590], the “NanoBRET Fold Response” value at NPY1R (NPY1R, 0.1μM) came out at 1.08; on NPY1R (NPY1R, 1μM), 0.99; on CXCR1 (CXCR1, 0.1μM), 1.02; on CXCR1 (CXCR1, 1μM), 1.00; at F2RL2 (F2RL2, 0.1μM) it was 0.99; on F2RL2 (F2RL2, 1μM), 1.03. Further, the “NanoBRET Fold Response” value on P2RY6 (P2RY6, 0.1μM) came out at 1.07; at P2RY6 (P2RY6, 1μM), 0.96; at HRH2 (HRH2, 0.1μM), 1.12; at HRH2 (HRH2, 1μM), 0.97.

Turning to `CN1CCN(C2=Nc3cc(Cl)ccc3N(CC(=O)NCCOCCOCCOCCOCCNC(=O)CCc3ccc4n3[B-](F)(F)[N+]3=C(c5ccc[nH]5)C=CC3=C4)c3ccccc32)CC1` [Clozapine-c-2-NB590], the “NanoBRET Fold Response” value was 1.01 on NPY1R (NPY1R, 0.1μM tracer); 1.01 at NPY1R (NPY1R, 1μM tracer); 0.99 at CXCR1 (CXCR1, 0.1μM tracer); 0.94 at CXCR1 (CXCR1, 1μM tracer); 1.20 at F2RL2 (F2RL2, 0.1μM tracer); 0.97 at F2RL2 (F2RL2, 1μM tracer). In addition, the “NanoBRET Fold Response” value on P2RY6 (P2RY6, 0.1μM tracer) is 0.97; on P2RY6 (P2RY6, 1μM tracer) it was 0.98; on HRH2 (HRH2, 0.1μM tracer), 0.92; at HRH2 (HRH2, 1μM tracer) it was 0.95.

As to `O=C(CCc1ccc2n1[B-](F)(F)[N+]1=C(c3ccc[nH]3)C=CC1=C2)NCc1ccc(C(=O)NCCOCCC(=O)N[C@@H]2CC[C@@]3(O)[C@H]4Cc5ccc(O)c6c5[C@@]3(CCN4CC3CC3)[C@H]2O6)cc1` [Naltrexone-3-NB590], the “NanoBRET Fold Response” value at NPY1R (NPY1R, tracer 0.1μM) stood at 0.93; on NPY1R (NPY1R, tracer 1μM), 1.02; on CXCR1 (CXCR1, tracer 0.1μM) it was 0.95; on CXCR1 (CXCR1, tracer 1μM), 0.75; at F2RL2 (F2RL2, tracer 0.1μM), 1.07; on F2RL2 (F2RL2, tracer 1μM), 1.02. Moreover, the “NanoBRET Fold Response” value at P2RY6 (P2RY6, tracer 0.1μM) was determined as 0.84; on P2RY6 (P2RY6, tracer 1μM) it was 0.81; at HRH2 (HRH2, tracer 0.1μM), 0.85; at HRH2 (HRH2, tracer 1μM), 1.34.

On to `CN(CCC=C1c2ccccc2CCc2ccccc21)C(=O)CCOCCOCCOCCOCCNC(=O)CCc1ccc2n1[B-](F)(F)[N+]1=C(c3ccc[nH]3)C=CC1=C2` [Amitriptyline-e-2-NB590], for which the results for the “NanoBRET Fold Response” value at CXCR1 (tracer at 1μM) and at HRH2 (tracer at 1μM) were 0.93 and 0.95, respectively.
